Experimental data as given in patent US20140248291A1, “Modulation of Cellular Migration” (THE UAB RESEARCH FOUNDATION, priority 2011, published 2014).

Tests used:
B2R [1] = molecular target: T1, B2R (Homo sapiens, UniProt P30411); test: calcium imaging (Fura-2), BK response with B2R antagonists; format: cell-based; conditions: BK in presence of the B2R antagonist; for average peak of Ca2+ response: p<0.001 vs BK
T1 construct: endogenous in cells; host or cells: D54-MG / D54-MG-GFP human glioma cells
T1 sequence (P30411 1-391): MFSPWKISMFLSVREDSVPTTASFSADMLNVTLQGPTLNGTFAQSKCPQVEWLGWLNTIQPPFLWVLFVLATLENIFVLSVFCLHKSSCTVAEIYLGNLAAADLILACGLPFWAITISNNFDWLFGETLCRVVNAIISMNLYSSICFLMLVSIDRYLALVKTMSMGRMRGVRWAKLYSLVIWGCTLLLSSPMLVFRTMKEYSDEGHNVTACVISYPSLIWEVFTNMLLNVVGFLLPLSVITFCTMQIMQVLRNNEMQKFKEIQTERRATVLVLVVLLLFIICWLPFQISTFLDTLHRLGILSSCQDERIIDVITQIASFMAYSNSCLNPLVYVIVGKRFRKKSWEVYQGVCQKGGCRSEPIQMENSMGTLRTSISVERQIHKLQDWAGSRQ
Description: D54-MG cells were plated on 35-mm glass bottom dishes (MatTek, Corp., Ashland, Mass.) at ˜100×10^3 per dish and cultured for 2 days. pTRIPZ transfected cells, after stable selection, were plated at a density of ˜20×10^3 per dish and treated with […] doxycycline for 4 to 5 days to allow for sufficient protein knockdown. All cells were loaded in serum-free culture medium for 45 min with the ratiometric Ca^2+ dye Fura-2-acetoxymethylester (5 μmol/L; TEFLABS, Austin, Tex.) reconstituted in 20% wiv pluronic acid in DMSO (Invitrogen, Carlsbad, Calif.). Cells were rinsed with serum-free medium and allowed to rest in 7% serum-containing medium for 45 min at 37° C. The glass-bottom dishes were placed in an environmental chamber mounted on an inverted microscope. Cells were allowed to equilibrate in the chamber for 15 min before calcium images were collected. Following equilibration, recordings were obtained with an Olympus Disk Spinning Unit (DSU) fluorescent imaging microscope where cells were alternately excited at 340 and 380 nm using an x-cite illumination light source. Emitted light was collected at >520 nm. Images were digitized online using Slidebook 4.2 software (Intelligent Imaging Innovations, Denver, Colo.), and 340:380 nm ratios were obtained every 15 seconds. Following a 5 minute baseline recording every 15 seconds, BK was applied to the cells and imaging continued every 15 seconds for 30 or 60 minutes. In a subset of experiments, BK antagonists, HOE-140 and Bradyzide were applied to the cells. These experiments were repeated at least three times and data were pooled for statistical analysis.
Glioma cells respond to environmental clues as they invade the brain. It has been previously shown that the exposure of glioma cells to certain neuroligands induces increase in intracellular calcium concentrations. In this series of experiments, we investigated Ca^2+-responses in cultured D54-MG glioma cells, after addition of acetylcholine (ACh), ATP or BK. Glioma cells were loaded with the ratiometric Ca^2+-dye FURA2-AM, and imaged over 30 min.

B2R [2] = conditions: NG108-15 cells, n=3; read-out: KI, displacement of [3H]-BK binding; cited from earlier work
[3] = molecular target: T2, BK receptor in guinea-pig ileum preparations (Cavia porcellus, UniProt O70526); conditions: read-out: K1 value, receptor binding; cited from earlier work
T2 construct: from tissue; host or cells: guinea-pig ileum preparations
T2 sequence (O70526 1-372): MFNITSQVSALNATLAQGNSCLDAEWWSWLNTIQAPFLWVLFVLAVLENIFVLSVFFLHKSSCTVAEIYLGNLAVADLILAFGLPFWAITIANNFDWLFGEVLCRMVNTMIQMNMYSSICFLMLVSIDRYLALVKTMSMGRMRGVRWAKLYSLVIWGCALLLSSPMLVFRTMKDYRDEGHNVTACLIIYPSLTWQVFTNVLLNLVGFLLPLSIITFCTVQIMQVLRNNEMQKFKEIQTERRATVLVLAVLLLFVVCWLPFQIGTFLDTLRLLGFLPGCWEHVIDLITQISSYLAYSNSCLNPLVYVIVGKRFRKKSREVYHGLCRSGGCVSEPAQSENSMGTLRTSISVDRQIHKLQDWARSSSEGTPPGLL

| SMILES | cells responded / cells imaged (B2R [1]) | average peak of Ca2+ response (B2R [1]) | Ki (B2R [2]) | Ki [3] |
| --- | --- | --- | --- | --- |
| CN(C)CCN(C)CCNC(=O)[C@@H]1CCCN1S(=O)(=O)c1ccc(NNC(=S)NC(c2ccccc2)c2ccccc2)c([N+](=O)[O-])c1 [Bradyzide] | 156/300 | 0.15±0.02 | 0.51 nM | – |
| N=C(N)NCCCC(NC(=O)[C@H](N)CCCNC(=N)N)C(=O)N1CCC[C@H]1C(=O)N1C[C@H](O)C[C@H]1C(=O)NCC(=O)N[C@@H](Cc1cccs1)C(=O)N[C@@H](CO)C(=O)N1Cc2ccccc2C[C@@H]1C(=O)N1C2CCCCC2C[C@H]1C(=O)N[C@H](CCCNC(=N)N)C(=O)O (stereo partly drawn) [HOE-140, D-Arg-[Hyp^3, Thi^5, D-Tic^7, Oic^8]bradykinin] | 22/162 | 0.15±0.01 | – | 0.798 nM |
